Like-named read-outs stand apart in the source and are kept apart here.
Key:
[1] = test system: human promonocytic lymphoma cells (U937); assay: Microculture indicator system (MIS), MTT growth inhibition assay with bivariate serial dilutions; assay type: cell-based
Procedure: Microcultures of human promonocytic lymphoma cells (U937) (“the U937 cells”) originally obtained from the American Type Culture Collection (CRL 1593) and later grown by Dr. K. Zoon at the FDA in Bethesda, Md. were set up in a multiwell plate with serial two-fold dilutions of dThd in tissue culture growth medium (RPMI 1640 plus 10% Nurserum and antibiotics). The volume of medium per well was 100 μl and the cell number per well was about 1×10^5. The plate was incubated at 37° C. for 24 hr.
A dye, 3-[4,5-dimethylthiazol-2-yl]-2,5-diphenyl-tetrazolium bromide (MTT), was used as a chromogenic indicator of the metabolically active cell mass. Viable cells metabolize the dye and accumulate a reduced formazan product (blue color) which is solubilized for colorimetry. Mossman T, J. Immunol. Methods 5:55-63 (1983); Li L and Lau B H S, In Vitro Cell Dev. Biol. 29A:531-536 (1993). The MTT assay has been established as useful for measuring either growth inhibition or population killing. Plowman, supra. The MTT method is ideal for cells tested in suspension growth, and can also be used for some cells growing in monolayers. […] Alley, supra; Hofs, supra; Wilson J K et al., Br. J. Cancer 62:189-94 (1990); Plowman, supra.
Thirty μl of 0.5% MTT in phosphate buffered saline was added to each microculture well at the appropriate time. After incubation at 37° C. for 3 hr, 120 μl of an aqueous solution of 10 % SDS with 0.01 N HCl was added to release and dissolve formazan product. This was accomplished by overnight incubation of the plate at 37° C. After careful mixing of the microwell contents by placing the plates on an orbital shaker for 5 minutes the absorbencies were quantitated by spectrophotometry at 570 nm with a Ceres UV 900 HDI microwell plate reader (from Biotek Instruments Inc, Winooski, Vt. 05404-0998). Absorbance data was normalized to a blank well containing all reagents without cells and was collected semi-automatically.
Flat-bottom 96-well plates of tissue culture quality (Corning or Costar) were set up with two-fold serial dilutions of each agent to be tested, e.g., the RA and TCI, using a multichannel pipettor with adjustable volume, e.g., Costar or Rainin, to perform serial mixing. This set-up is diagrammed in FIG. 12. […] In each plate, a total of 59 wells then contained bivariate agent combinations, the bivariate serial dilutions.
Agents were serially diluted by serial mixing in two separate plates or series of wells, and then were combined prior to addition of a fixed volume and density of the U937 cells in a suspension calculated to deliver about 1×10^5 cells per well.
Cells were added after serial dilutions of the dThd had been dispensed. Cells were dispensed at about 10×10^4 cells per microwell to provide optimal sensitivity of detection of cell damage in subsequent calorimetric assays. […] The final volume of medium was 100 μl/well. The plates were further incubated at 37° C. for a total duration of 18-24 h. The dye MTT was used as a chromogenic indicator of the residual and metabolically active cell mass. (Described in Example 1).
In this MTT assay, normalized absorbance data was collected semi-automatically from each microculture well with a Ceres UV 900 HD1 plate reader, from Biotek Instruments Inc., Winooski, V T 05404-0998, stored in an EIA file under the Ceres 900 program, transferred in comma delimited format to a floppy diskette, and imported into a spread sheet program (Borland Quattro Pro) for data manipulations.

[2] = test system: U937 cells; assay: DNA gel electrophoresis for DNA fragmentation (apoptosis); assay type: cell-based, human
Procedure: Samples of the U937 cells were exposed to a series of concentrations of dThd for 24 hr. Their DNA was isolated by lysis of cell samples in TE buffer containing TRIS 10 mM, EDTA 10 mM, SDS 0.5% and proteinase K 200 μg/ml at […] for 2 h. The proteins were precipitated in a IM solution of NaCl and centrifuged at 2,500×g for 30 min at […] DNAse free RNase (25 μg/ml) was added to the supernatant and incubated for 30 min at 37° C. Spectrophotometric quantitation of the DNA in the supernatant was quantitated by absorbance spectrophotometry at 260 nm. Volumes adjusted to contain equal amounts of DNA were mixed with a loading buffer of 40% (w/v) sucrose, 0.1M EDTA pH 8.0, 0.5% (w/v) sodium lauryl sulphate and 0.05% (w/v) bromophenol blue. […] Separated bands of DNA were stained with ethidium bromide and photographed in UV light (Fotodyne Inc.). […] The lowest molecular weight (about 180 bp) was determined with a standard 123 bp ladder from Sigma Chemical Co. (Cat. #D5042). The result shown is a classical “DNA ladder,” characteristic of the fragmentation of DNA macromolecules in apoptosis. See Tomei, supra; Obeid, supra; Gold, supra.

[3] = human subjects, oral doses; cited from earlier work

**Q.** Which inhibition at 380 µM ([1]; Homo sapiens, U-937, read-out: Growth inhibition (MTT), dThd […], U937, dThd […] for 4 H, STSP for 14 H, total 18 H, STSP nM: 100,50,25,12.5,6.25,3.125, r14 dThd alone, read-out: Growth inhibition (MTT), dThd 0.38 mM) does the source give for `Cc1cn([C@H]2C[C@H](O)[C@@H](CO)O2)c(=O)[nH]c1=O` [dThd, deoxythymidine] here?
**A.** The inhibition at 380 µM was 23%.

**Q.** What about the inhibition at 750 µM ([1]; Homo sapiens, U-937, read-out: Growth inhibition (MTT), dThd […], U937, dThd […] for 4 H, STSP for 14 H, total 18 H, STSP nM: 100,50,25,12.5,6.25,3.125, r14 dThd alone, read-out: Growth inhibition (MTT), dThd 0.75 mM) of the same compound?
**A.** The inhibition at 750 µM was 34%.

**Q.** What about the inhibition at 1500 µM ([1]; Homo sapiens, U-937, read-out: Growth inhibition (MTT), dThd […], U937, dThd […] for 4 H, STSP for 14 H, total 18 H, STSP nM: 100,50,25,12.5,6.25,3.125, r14 dThd alone, read-out: Growth inhibition (MTT), dThd 1.5 mM) of the same compound?
**A.** Its inhibition at 1500 µM is 41%.

**Q.** And the inhibition at 190 µM ([1]; Homo sapiens, U-937, read-out: Growth inhibition (MTT), dThd for 0 H, dThd […], U937, dThd […] for 0 H (added with STSP), STSP for 18 H, total 18 H, STSP nM: 100,50,25,12.6,6.25,3.13, r28 dThd alone, read-out: Growth inhibition (MTT), dThd for 0 H, dThd 0.19 mM)?
**A.** The inhibition at 190 µM was 15%.

**Q.** What about the inhibition at 380 µM ([1]; Homo sapiens, U-937, read-out: Growth inhibition (MTT), dThd for 0 H, dThd […], U937, dThd […] for 0 H (added with STSP), STSP for 18 H, total 18 H, STSP nM: 100,50,25,12.6,6.25,3.13, r28 dThd alone, read-out: Growth inhibition (MTT), dThd for 0 H, dThd 0.38 mM) of the same compound?
**A.** Its inhibition at 380 µM is 20%.

**Q.** What about the inhibition at 760 µM ([1]; Homo sapiens, U-937, read-out: Growth inhibition (MTT), dThd for 0 H, dThd […], U937, dThd […] for 0 H (added with STSP), STSP for 18 H, total 18 H, STSP nM: 100,50,25,12.6,6.25,3.13, r28 dThd alone, read-out: Growth inhibition (MTT), dThd for 0 H, dThd 0.76 mM) of the same compound?
**A.** Its inhibition at 760 µM is 27%.

**Q.** And the inhibition at 1500 µM ([1]; Homo sapiens, U-937, read-out: Growth inhibition (MTT), dThd for 0 H, dThd […], U937, dThd […] for 0 H (added with STSP), STSP for 18 H, total 18 H, STSP nM: 100,50,25,12.6,6.25,3.13, r28 dThd alone, read-out: Growth inhibition (MTT), dThd for 0 H, dThd 1.50 mM)?
**A.** Its inhibition at 1500 µM is 33%.

**Q.** And the “Enhancement of DEET-induced apoptosis as prospective RA” value ([1]; MTT tests, about 0.05 to 3 mM, preliminary results)?
**A.** Its value is “no significant enhancement of the DEET-induced apoptosis”.

**Q.** What about the “dThd concentration at maximum difference between the plots for O and S” value ([1]; O/S plots of dThd and STSP, FIG. 15, U937) of the same compound?
**A.** The value was “approximately 0.1 mM”.

**Q.** What about the “RA concentration for STSP potentiation relative to concentration causing cell cycle arrest” value ([1]; U937) of the same compound?
**A.** The value was “at least one log lower”.

**Q.** What about the “Combined results ratio (CRR), dThd for 0 H, dThd 0.02 mM” value ([1]; U937, dThd 0.02 mM for 0 H (added with STSP), STSP for 18 H, total 18 H, STSP nM: 100,50,25,12.6,6.25,3.13, r27 dThd alone) of the same compound?
**A.** The value was 1.0.

**Q.** And the “Combined results ratio (CRR), dThd 0.02 mM” value ([1]; U937, dThd 0.02 mM for 4 H, STSP for 14 H, total 18 H, STSP nM: 100,50,25,12.5,6.25,3.125, r13 dThd alone)?
**A.** The value was 1.0.

**Q.** And the “Combined results ratio (CRR), dThd 0.05 mM” value ([1]; U937, dThd 0.05 mM for 4 H, STSP for 14 H, total 18 H, STSP nM: 100,50,25,12.5,6.25,3.125, r13 dThd alone)?
**A.** The value was 1.0.

**Q.** And the “Combined results ratio (CRR), dThd for 0 H, dThd 0.06 mM” value ([1]; U937, dThd 0.06 mM for 0 H (added with STSP), STSP for 18 H, total 18 H, STSP nM: 100,50,25,12.6,6.25,3.13, r27 dThd alone)?
**A.** Its value is 1.0.

**Q.** What about the “Combined results ratio (CRR), dThd for 0 H, dThd 0.09 mM” value ([1]; U937, dThd 0.09 mM for 0 H (added with STSP), STSP for 18 H, total 18 H, STSP nM: 100,50,25,12.6,6.25,3.13, r27 dThd alone) of the same compound?
**A.** Its value is 1.0.

**Q.** And the “Combined results ratio (CRR), dThd 0.09 mM” value ([1]; U937, dThd 0.09 mM for 4 H, STSP for 14 H, total 18 H, STSP nM: 100,50,25,12.5,6.25,3.125, r13 dThd alone)?
**A.** Its value is 1.0.

**Q.** What about the “Combined results ratio (CRR), dThd for 0 H, dThd 3.00 mM” value ([1]; U937, dThd 3.00 mM for 0 H (added with STSP), STSP for 18 H, total 18 H, STSP nM: 100,50,25,12.6,6.25,3.13, r27 dThd alone) of the same compound?
**A.** The value was 1.0.

**Q.** What about the “Combined results ratio (CRR), dThd 3.00 mM” value ([1]; U937, dThd 3.00 mM for 4 H, STSP for 14 H, total 18 H, STSP nM: 100,50,25,12.5,6.25,3.125, r13 dThd alone) of the same compound?
**A.** The value was 1.0.

**Q.** And the “Combined results ratio (CRR), dThd for 0 H, dThd […]” value ([1]; U937, dThd […] for 0 H (added with STSP), STSP for 18 H, total 18 H, STSP nM: 100,50,25,12.6,6.25,3.13, r27 dThd alone)?
**A.** The value was 1.0.

**Q.** What about the “Combined results ratio (CRR), dThd […]” value ([1]; U937, dThd […] for 4 H, STSP for 14 H, total 18 H, STSP nM: 100,50,25,12.5,6.25,3.125, r13 dThd alone) of the same compound?
**A.** The value was 1.0.

**Q.** What about the “combined results ratio, dThd only (baseline line)” value ([1]; U937, dThd alone, every dThd concentration 3.00-0.01 mM) of the same compound?
**A.** Its value is 1.0.

**Q.** What about the DNA fragmentation ([2]; 3 mM dThd, cell cycle arrest) of the same compound?
**A.** Its DNA fragmentation is “pronounced DNA fragmentation”.

**Q.** What about the “dThd concentration giving fragmentation of DNA” value ([2]; U937, 24 hr, FIG. 8) of the same compound?
**A.** The value was greater than 0.5 mM.

**Q.** And the “Blood (plasma) levels achieved” value [3]?
**A.** The value was “up to 6 mM”.

From patent US6455593B1, “Method of dynamic retardation of cell cycle kinetics to potentiate cell damage” (priority 1995, dated 2002)
